Reference: patent US9321791B2, “8-[3-amino-piperidin-1-yl]-xanthines, the preparation thereof and their use as pharmaceutical compositions” (Boehringer Ingelheim International GmbH, priority 2002, dated 2016)

Test system: rats
Assay: Tolerability after oral administration to rats
Type: in vivo
Details: 10 mg/kg

For CC#CCn1c(N2CCC[C@@H](N)C2)nc2c1c(=O)n(Cc1ncc3ccccc3n1)c(=O)n2C [2(80), 1-[(quinazolin-2-yl)methyl]-3-methyl-7-(2-butyn-1-yl)-8-((R)-3-amino-piperidin-1-yl)-xanthine], the “changes in the animals' behaviour” value was “no changes in the animals' behaviour could be detected”.
